Among the data in ChEMBL document CHEMBL1122875, “Orally absorbable cephalosporin antibiotics. 3. Preparation of biologically active R isomer of 7-(3-benzothienylglycylamido)deacetoxycephalosporanic acid” (1985) are MIC values, retold here.

What all share (format): functional
For assay [1], the system named is Haemophilus influenzae. Kind of assay: The compound was tested for antibacterial activity against resistant Haemophilus influenzae 76.
The subject of assay [2] is Staphylococcus aureus. Kind of assay: Tested for antibacterial activity against methicillin resistant Staphylococcus aureus X400.
The next assay relates to Streptococcus pneumoniae. Kind of assay: The compound was tested for antibacterial activity against Streptococcus pneumoniae Park.
The test system of a further assay is Streptococcus. Put plainly: The compound was tested for antibacterial activity against Streptococcus group D X66.
In assay [3] the test system is Staphylococcus aureus. Kind of assay: Tested for antibacterial activity against methicillin resistant Staphylococcus aureus S13E.
The test system of a further assay is Streptococcus pyogenes. Put plainly: The compound was tested for antibacterial activity against Streptococcus pyogenes C203.
Assay [4] deals with Staphylococcus aureus. Put plainly: Tested for antibacterial activity against penicillin G sensitive Staphylococcus aureus X1.1.
Assay [5] deals with Staphylococcus epidermidis. Put plainly: The compound was tested for antibacterial activity against Staphylococcus epidermidis EP11.
Assay [6] deals with Staphylococcus aureus. Put plainly: Tested for antibacterial activity against penicillin G resistant Staphylococcus aureus V41.
For assay [7], the system named is Haemophilus influenzae. Kind of assay: The compound was tested for antibacterial activity against sensitive Haemophilus influenzae C.L.

≈ marks a conversion by molar mass, not a printed value.

`CC1=C(C(=O)O)N2C(=O)C(NC(=O)[C@@H](N)c3csc4ccccc34)C2SC1` (some centres not stated): the MIC was 16 µg/mL (≈ 39.7 µM) against Haemophilus influenzae [1]; > 128 µg/mL against Staphylococcus aureus [2]; 16 µg/mL (≈ 39.7 µM) in the assay on Streptococcus pneumoniae; > 128 µg/mL with Streptococcus; 128 µg/mL (≈ 317 µM) against Staphylococcus aureus [3]; 16 µg/mL (≈ 39.7 µM) against Streptococcus pyogenes. Moreover, the MIC against Staphylococcus aureus [4] turned out to be 32 µg/mL (≈ 79.3 µM).

For the compound `CC1=C(C(=O)O)N2C(=O)C(NC(=O)[C@H](N)c3csc4ccccc34)C2SC1` (some centres not stated), the MIC stood at 1 µg/mL (≈ 2.48 µM) with Haemophilus influenzae [1]; 32 µg/mL (≈ 79.3 µM) in the assay with Staphylococcus aureus [2]; 0.5 µg/mL (≈ 1.24 µM) in the assay on Streptococcus pneumoniae; 4 µg/mL (≈ 9.91 µM) in assay [5]; 128 µg/mL (≈ 317 µM) with Streptococcus; 4 µg/mL (≈ 9.91 µM) against Staphylococcus aureus [3]. Further, the MIC against Staphylococcus aureus [6] is 4 µg/mL (≈ 9.91 µM); in the assay with Streptococcus pyogenes it was 0.5 µg/mL (≈ 1.24 µM); in the assay on Haemophilus influenzae [7], 2 µg/mL (≈ 4.96 µM); in the assay on Staphylococcus aureus [4], 1 µg/mL (≈ 2.48 µM).

With `CC1=C(C(=O)O)N2C(=O)C(NC(=O)C(N)c3csc4ccccc34)C2SC1` (configuration not stated), the MIC in the assay on Haemophilus influenzae [1] was 2 µg/mL (≈ 4.96 µM); in the assay on Streptococcus pneumoniae, 4 µg/mL (≈ 9.91 µM); in assay [5], 4 µg/mL (≈ 9.91 µM); against Streptococcus, > 128 µg/mL; against Staphylococcus aureus [3] it was 16 µg/mL (≈ 39.7 µM); against Staphylococcus aureus [6] it was 8 µg/mL (≈ 19.8 µM). Besides, the results for the MIC against Streptococcus pyogenes, in the assay on Haemophilus influenzae [7] and in the assay with Staphylococcus aureus [4] were 2 µg/mL (≈ 4.96 µM), 4 µg/mL (≈ 9.91 µM) and 2 µg/mL (≈ 4.96 µM), respectively.

For `CC1=C(C(=O)O)N2C(=O)[C@@H](NC(=O)[C@H](N)c3ccccc3)[C@H]2SC1` [CEPHALEXIN ANHYDROUS], the MIC stood at 8 µg/mL (≈ 23 µM) in the assay with Haemophilus influenzae [1]; 2 µg/mL (≈ 5.76 µM) with Streptococcus pneumoniae; 32 µg/mL (≈ 92.1 µM) in assay [5]; 0.5 µg/mL (≈ 1.44 µM) in the assay with Streptococcus pyogenes; 8 µg/mL (≈ 23 µM) in the assay on Haemophilus influenzae [7]; 4 µg/mL (≈ 11.5 µM) in the assay with Staphylococcus aureus [4].
